Consider 15 compounds from patent US11192899B2 (MERCK PATENT GMBH, priority 2017, dated 2021).

Like-named read-outs stand apart in the source and are kept apart here.

Series [1] has as its target T1, A2B receptors (Homo sapiens, UniProt P29275).
T1 sequence (P29275 1-332): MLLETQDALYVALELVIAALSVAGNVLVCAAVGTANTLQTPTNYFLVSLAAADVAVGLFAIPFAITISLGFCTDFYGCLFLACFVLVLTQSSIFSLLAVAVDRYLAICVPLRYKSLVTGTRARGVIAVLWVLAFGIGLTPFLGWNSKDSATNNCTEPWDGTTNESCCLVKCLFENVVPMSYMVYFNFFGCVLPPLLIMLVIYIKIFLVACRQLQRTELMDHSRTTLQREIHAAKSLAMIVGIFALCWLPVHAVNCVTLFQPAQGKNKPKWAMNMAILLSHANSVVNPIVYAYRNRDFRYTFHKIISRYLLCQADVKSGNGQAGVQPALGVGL
To be noted: cited from earlier work.

For the next series, the system named is mouse Pan T cells. As to the kind of experiment: rescue of cytokine (IL-2, IFN-γ) secretion of CD3/CD28-activated mouse Pan T cells inhibited by CGS-21680. In kind it is cell-based. The following applies: for IC50: Mus musculus, T-cell. An excerpt:
Adenosine (Ado) in tumor microenvironment can inhibit T cell activity by signaling through A2A receptors and suppress cytokine secretion by T cells. […] Potential A2A antagonists or A2A/A2B dual antagonists can rescue T cells from this inhibition. Herein, we describe the in vitro system we established using Pan T cells from mouse spleens to screen potential A2A antagonists or A2A/A2B dual antagonists for their activity. The method described involves the use of CD3/CD28 pre-coated beads to stimulate Pan T cells purified from mouse splenocytes, combined with the addition of A2A agonist along with potential A2A or A2A/A2B dual antagonists to evaluate potentiation of T cell cytokine production.
Briefly, mouse Pan T cells are purified from spleens of BALB/c mice using Pan T cell isolation kit Mouse II (MACS Miltenyi biotech Cat #Order no. 130-095-130) according to manufacturer's protocol. The purified T cells are seeded in Nunc™ 96-Well Polystyrene Round Bottom Microwell Plates in RPMI medium with 10% heat inactivated fetal bovine serum. The cells are rested at 37° C. for 1 h before activating with CD3/CD28 pre-coated beads (Dynabeads™ Mouse T-Activator CD3/CD28; Cat #11456D). After 30 min the cells are treated with varying doses of test antagonist(s). […] After 24 h incubation IL-2 levels in the supernatants and after 48 h incubation IFN-γ levels in the supernatants are measured by ELISAs according to manufacturer's protocol (R&D systems Cat #DY402 (IL-2); DY485 (IFN-γ)). Once the concentrations are calculated, the difference of cytokine concentration of DMSO control and agonist alone control is calculated (called Δ) and the percentage of rescue by each concentration of antagonist is calculated by using Microsoft Excel. These percentages of cytokine rescue in a dose dependent manner of antagonist is plotted in GraphPad Prism software and IC50 is calculated.

The nature of series [2]: pharmacokinetics in mouse after single intravenous and oral administration. To be noted: for Feces iv [%]: iv @ 0.2, excretion as % of dose; for Vd / clearance / half-life / Cmax: female, mouse; for Vd / clearance / half-life: 0.2 mg/kg; for Cmax: 1 mg/kg.
Source text: Female Wistar rats/mice (n=6) received either a single intravenous (bolus) injection or an oral administration (by gavage) of the tested compound.
The concentrations of the compounds in plasma, feces were quantified using an UPLC method with tandem mass spectrometric detection (LC-MS/MS) previously developed at the ‘Institute of Drug Metabolism and Pharmacokinetics’. The LCMS/MS system consisted of a Waters Acquity UPLC coupled to an AB Sciex mass spectrometer API 5500 Q-trap. […] The detection of the compounds was performed using multiple reaction monitoring in the positive ionization mode. Plasma samples were spiked with internal standard (20 μl) and the analyte was extracted from the matrix using tertiary-butyl methyl ether (tBME). The organic phase was evaporated to dryness under a stream of nitrogen. The residue was dissolved in acetonitrile/0.1% formic acid for LC-MS/MS analysis. Feces samples were homogenized with 4-times their volume of an ethanol/water mixture (4:1, v/v). Aliquots of the aqueous-ethanolic extracts were spiked with internal standard, diluted with acetonitrile/water (1:1, v/v) and directly injected into the LC-MS/MS system.
Pharmacokinetic parameters Cmax and tmax were taken from the observed data. […] AUC values were calculated by non-compartmental analysis using the linear up/log down method. Numerical data for mean plasma concentrations and derived pharmacokinetic parameters were rounded to 3 significant digits for presentation.
Another series has as its target T2, human A2A receptor (Homo sapiens, UniProt P29274).
T2 construct: expressed in transfected cells; host or cells: HEK293
The series is described as follows: cAMP HTRF functional assay, recombinant HEK293 cells expressing human A2A receptor, agonist NECA. In kind it is cell-based. How it is done:
(§1) The functional activities of human A2A, A2B, A1 and A3 receptors were determined by quantification of cAMP, being the second messenger for adenosine receptors.
(§2) Obtained raw data were normalized against the inhibitor control and the neural control (DMSO) and the normalized data were fitted using GeneData software.

Series [3] has as its target T1, A2B receptors. The series is described as follows: cAMP HTRF functional assay, recombinant HEK293 cells expressing human A2B receptor, agonist NECA. Set-up: expressed in transfected cells; host or cells: HEK293. It counts as cell-based. How it is done: as §1, §2
A further series has as its target T3, human A3 receptor (Homo sapiens, UniProt P0DMS8).
T3 construct: expressed in transfected cells; host or cells: CHO
T3 sequence (P0DMS8 1-318): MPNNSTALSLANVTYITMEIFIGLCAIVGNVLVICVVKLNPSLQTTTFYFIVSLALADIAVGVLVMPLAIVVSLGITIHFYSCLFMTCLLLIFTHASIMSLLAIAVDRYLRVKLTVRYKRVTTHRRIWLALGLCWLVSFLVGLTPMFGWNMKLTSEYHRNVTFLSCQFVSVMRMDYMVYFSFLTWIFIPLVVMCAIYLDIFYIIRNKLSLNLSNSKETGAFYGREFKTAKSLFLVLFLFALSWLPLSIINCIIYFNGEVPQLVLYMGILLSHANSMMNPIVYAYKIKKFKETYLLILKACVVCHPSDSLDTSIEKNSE
As to the kind of experiment: cAMP HTRF functional assay, recombinant CHO cells expressing human A3 receptor, forskolin and agonist IB-MECA. It counts as cell-based. How it is done:
as §1
(§3) For human A1 and A3 receptors, recombinant CHO cells, expressing either A1 or A3-receptor, were used. As both receptors couple to Gi proteins, the assay protocol was adapted:
(§4) Cells were seeded into 384-well plates, forskolin, test compounds and agonists (CPA for A1- and IB-MECA for A3-receptor) were added. After 30 min incubation, HTRF reagents (cAMP dynamic 2, Cis Bio) were added and the cellular cAMP levels were determined using the ENVISION (Perkin Elmer) plate reader.
as §2

The next series has as its target T4, human A1 receptor (Homo sapiens, UniProt P30542).
T4 construct: expressed in transfected cells; host or cells: CHO
T4 sequence (P30542 1-326): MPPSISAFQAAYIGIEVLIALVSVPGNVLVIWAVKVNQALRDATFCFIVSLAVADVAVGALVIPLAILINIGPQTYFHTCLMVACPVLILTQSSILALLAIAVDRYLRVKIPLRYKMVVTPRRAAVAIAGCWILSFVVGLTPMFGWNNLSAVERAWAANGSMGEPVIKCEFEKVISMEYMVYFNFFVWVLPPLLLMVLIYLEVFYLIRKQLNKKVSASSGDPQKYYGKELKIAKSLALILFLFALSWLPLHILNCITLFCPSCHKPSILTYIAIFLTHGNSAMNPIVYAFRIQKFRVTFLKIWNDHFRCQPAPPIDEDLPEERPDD
As to the kind of experiment: cAMP HTRF functional assay, recombinant CHO cells expressing human A1 receptor, forskolin and agonist CPA. In kind it is cell-based. How it is done:
as §1, §3, §4, §2

Setting [4] is: 24 h, read-out: Mouse T-Cell IL-2.

T2 sequence (P29274 whole entry): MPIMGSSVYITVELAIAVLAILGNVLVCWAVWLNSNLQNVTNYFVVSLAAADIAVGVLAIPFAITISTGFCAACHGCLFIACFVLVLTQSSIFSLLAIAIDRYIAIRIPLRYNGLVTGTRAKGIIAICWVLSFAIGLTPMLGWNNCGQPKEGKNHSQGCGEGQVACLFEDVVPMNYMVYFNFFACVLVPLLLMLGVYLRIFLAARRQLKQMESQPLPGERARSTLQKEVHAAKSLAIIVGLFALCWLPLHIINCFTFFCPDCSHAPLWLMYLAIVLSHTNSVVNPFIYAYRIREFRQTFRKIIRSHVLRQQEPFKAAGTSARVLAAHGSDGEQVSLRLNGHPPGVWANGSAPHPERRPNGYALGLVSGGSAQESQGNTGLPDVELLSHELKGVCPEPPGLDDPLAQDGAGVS

Regarding `CCCn1c(=O)c2[nH]c(-c3ccc(S(=O)(=O)O)cc3)nc2n(CCC)c1=O` [DPSPX, 1,3-dipropyl-8-sulphophenylxanthine], at A2B receptors [1], the “affinity for A2B receptors” value is recorded as “mid to high nM range”.

Take `COc1ccc(N2CCOCC2)c2sc(NC(=O)N3CCC(C)(O)CC3)nc12` [Tozadenant, reference compound]: in the series with mouse Pan T cells (IFN-γ rescue, 48 h, CGS-21680 1 μM, BALB/c Pan T cells), the “Mouse IFN-γ [nM]” value is recorded as “NA (< 50% rescue)”. Further, in the series on mouse Pan T cells (IL-2 rescue, 24 h, CGS-21680 1 μM, BALB/c Pan T cells), the “Mouse T-Cell IL-2 [nM]” value is “NA (< 50% rescue)”. For the same compound, in series [2] (PK data in mouse, iv), the “CL” value was 88.68 L/h/kg, the “Vss [L/kg]” value was 2,03 L/kg, the “t1/2 [h]” value is recorded as 0,184 h and the “CMax (iv) @ 1 mg/kg” value stood at 337 ng/mL. Moreover, the “Feces iv [%]” value in series [2] (PK data in mouse) is on record as 23 @ 0.2%.

With `O=c1[nH]c(=O)c2nc3ccccc3nc2[nH]1` [alloxazine, 2,4-dioxobenzopteridine], at A2B receptors [1], the “affinity for A2B receptors” value was “mid to high nM range”.

`COc1ccc(-c2ccccc2)c2ncc(NC(=O)N3CCC(C)(O)CC3)nc12` [compound 2, 4-Hydroxy-4-methyl-piperidine-1-carboxylic acid (8-methoxy-5-phenyl-quinoxalin-2-yl)-amide]: the IC50 at human A2A receptor is under 0.1 µM; on A2B receptors [3], over 1 µM; in the series with mouse Pan T cells (setting [4]) it was 0.4 µM; in the series on mouse Pan T cells (48 h, read-out: Mouse IFN-γ), 0.6 µM; on human A3 receptor it was over 1 µM; at human A1 receptor it was over 1 µM. Also, the “Feces iv [%]” value in series [2] (PK data in mouse) was 12.5 @ 0.2%. For the same compound, in series [2] (plasma, iv), the Vd came to 1.13 L/kg. In addition, the clearance in series [2] (plasma, iv) was 0.339 L/h/kg. This compound also showed a half-life in series [2] (plasma, iv) of 2.37 h. The compound also gave a Cmax in series [2] (plasma, iv) of 0.732 µg/mL.

Turning to `COc1ccc(C2CCOCC2)c2ncc(NC(=O)N3CCC(C)(O)CC3)nc12` [compound 5], the IC50 was under 0.1 µM on human A2A receptor, over 1 µM on A2B receptors [3], over 1 µM at human A3 receptor and over 1 µM at human A1 receptor. Besides, the “Feces iv [%]” value in series [2] (PK data in mouse) is given as 4.2 @ 0.2%. Besides, the “CMax (iv) @ 1 mg/kg” value in series [2] (PK data in mouse, iv) stood at 908 ng/mL. In addition, the half-life in series [2] (in vivo, iv) is 0.92 h. In series [2] (plasma, iv), this compound returned a Vd of 1.24 L/kg. This compound gave a clearance in series [2] (plasma, iv) of 1.18 L/h/kg.

As to `C#CCC1(O)CCN(C(=O)Nc2cnc3c(C4CCOCC4)ccc(OC)c3n2)CC1` [compound 10], at human A2A receptor, the IC50 was under 0.1 µM. Further, on A2B receptors [3], the IC50 is over 1 µM. In addition, the IC50 at human A3 receptor is over 1 µM. Further, the “Feces iv [%]” value in series [2] (PK data in mouse) was 1.8 @ 0.2%. In series [2] (plasma, iv), the Vd is 0.811 L/kg, the clearance was 1.09 L/h/kg, the half-life was 0.55 h and the peak level (Cmax) was 1.09 µg/mL. The IC50 at human A1 receptor is under 1 µM.

Consider `COc1ncc(-c2ccccc2)c2ncc(NC(=O)N3CCC(C)(O)CC3)nc12` [compound 27, 4-Hydroxy-4-methyl-piperidine-1-carboxylic acid (5-methoxy-8-phenyl-pyrido[3,4-b]pyrazin-3-yl)-amide], for which the IC50 at human A2A receptor was under 0.1 µM; at A2B receptors [3] it was over 1 µM; with mouse Pan T cells (setting [4]) it was 0.375 µM; in the series on mouse Pan T cells (48 h, read-out: Mouse IFN-γ) it was 0.333 µM; at human A3 receptor, over 1 µM; on human A1 receptor, under 1 µM. Besides, the “Feces iv [%]” value in series [2] (PK data in mouse) is given as 6.2 @ 0.2%. In series [2] (plasma, iv), this compound displayed a Vd of 0.82 L/kg. This compound gave a clearance in series [2] (plasma, iv) of 0.227 L/h/kg. Moreover, the half-life in series [2] (plasma, iv) was 2.56 h. Moreover, the concentration in series [2] (plasma, iv) peaked (Cmax) at 0.983 µg/mL.

`COc1ccc(C2=CCOCC2)c2ncc(NC(=O)c3cnsc3)nc12` [compound 136, N-[5-(3,6-dihydro-2H-pyran-4-yl)-8-methoxyquinoxalin-2-yl]-1,2-thiazole-4-carboxamide]: the IC50 is under 0.01 µM at human A2A receptor, under 0.1 µM on A2B receptors [3], over 1 µM on human A3 receptor and under 1 µM on human A1 receptor.

As to `COc1ccc(-c2cccnc2)c2ncc(NC(=O)c3cnc(C)o3)nc12` [compound 138, N-[8-methoxy-5-(pyridin-3-yl)quinoxalin-2-yl]-2-methyl-1,3-oxazole-5-carboxamide], the IC50 on human A2A receptor is under 0.1 µM; at A2B receptors [3], under 0.1 µM; on human A3 receptor, over 1 µM; on human A1 receptor, under 0.01 µM.

As to `COc1ccc(C2=CCOC2)c2ncc(NC(=O)C3CC3)nc12` [compound 141, N-[5-(2,5-dihydrofuran-3-yl)-8-methoxyquinoxalin-2-yl]cyclopropanecarboxamide], the IC50 is under 0.1 µM at human A2A receptor, under 0.1 µM at A2B receptors [3], under 1 µM on human A3 receptor and under 1 µM at human A1 receptor.

As to `COCCOc1cccc(-c2ccc(OC)c3nc(NC(=O)C4CC4)cnc23)c1` [compound 147, N-{8-methoxy-5-[3-(2-methoxyethoxy)phenyl]quinoxalin-2-yl}cyclopropanecarboxamide], the IC50 was under 0.01 µM at human A2A receptor, under 0.1 µM at A2B receptors [3], under 1 µM on human A3 receptor and under 1 µM on human A1 receptor.

Regarding `COCCOc1cccc(-c2ccc(OC)c3nc(NC(=O)c4cnc(C)o4)cnc23)c1` [compound 148, N-{8-methoxy-5-[3-(2-methoxyethoxy)phenyl]quinoxalin-2-yl}-2-methyl-1,3-oxazole-5-carboxamide], the IC50 at human A2A receptor is under 0.01 µM; at A2B receptors [3], under 0.1 µM; at human A3 receptor, over 1 µM; at human A1 receptor it was under 1 µM.

Turning to `COCCOc1cccc(-c2ccc(OC)c3nc(NC(=O)c4cnc(C)s4)cnc23)c1` [compound 151, N-{8-methoxy-5-[3-(2-methoxyethoxy)phenyl]quinoxalin-2-yl}-2-methyl-1,3-thiazole-5-carboxamide], the IC50 on human A2A receptor was under 0.1 µM; on A2B receptors [3], over 1 µM; at human A3 receptor, over 1 µM; at human A1 receptor, under 1 µM.

As for `COc1ncc(-c2ccc(OC)c3nc(NC(=O)C4CC4)cnc23)cn1` [compound 156, N-[8-methoxy-5-(2-methoxypyrimidin-5-yl)quinoxalin-2-yl]cyclopropanecarboxamide], the IC50 is under 0.1 µM on human A2A receptor, over 1 µM at A2B receptors [3], over 1 µM at human A3 receptor and under 1 µM on human A1 receptor.

On to `CCCn1c(=O)[nH]c(=O)c2[nH]cnc21` [enprofylline, 3-n-propylxanthine], for which the “affinity for A2B receptors” value on A2B receptors [1] was “mid to high nM range”.
